# Test results published in US10905683B2, “Compositions and uses of amidine derivatives” (BIOCRYST PHARMACEUTICALS, INC., priority 2014, dated 2021).
# “And” between values parts separate entries of the source, which are not always exact repeats. Identical values can stand only once. Like-named read-outs stand apart in the source and are kept apart here.
# Key:
# [1] = Absorption enhancement studies in the rat, intragastric dosing, plasma concentration
# Protocol: Based on the solubility data that was reported previously, combinations of solvents were evaluated to study the effect of formulation composition on oral absorption.
# Combinations of solvents and surfactants were evaluated in rat, dog and nonhuman primate models at levels appropriate for a potential human oral pharmaceutical product.
# The early studies in rats used aqueous dosing solutions.
# These formulations included a variety of solvents and co-solvents for evaluation to maximize absorption and form a physicochemically stable liquid. Unless otherwise indicated, the percentages are expressed by weight as a proportion of the total weight of all excipients present in the mixture (i.e. excluding the active ingredient).
# [2] = octanol-PBS pH 7.4 partition coefficient (log D7.4) assay; assay type: physicochemical; conditions: octanol/0.01 M phosphate buffer pH 7.4, 24 hours, LC/MS/MS
# Protocol: A 1 μL volume of a 1 mM stock solution of the compound in dimethyl sulfoxide (DMSO) was added to 500 μL 0.01 M phosphate buffer pH 7.4 (saturated with octanol) and 500 μL of octanol (saturated with 0.01 M phosphate buffer). […] Samples were prepared in triplicate.
# [3] = pKa by UV-metric and potentiometric titration; assay type: physicochemical
# Excerpt: The pKa experiments have been performed by both UV-metric (in aqueous) and potentiometric method (in methanol cosolvents). Nine titrations have been performed for the compound, all from low to high pH (2.0-12.0).
# [4] = Phase 1 safety and tolerability; assay type: in vivo, human; conditions: healthy subjects
# Protocol: (§1) A two-part, Phase 1, double-blind, placebo-controlled study of the compound of Example 1 was conducted in healthy subjects. Part 1 of the study assessed the safety, tolerability and the pharmacokinetic (PK) and pharmacodynamic (PD) properties of the compound of Example 1 following a single ascending dose. Subjects were enrolled in five sequential cohorts and received the compound of Example 1 (50 mg, 125 mg, 250 mg, 500 mg or 1000 mg; n=6/cohort) or placebo (n=2/cohort) under fasting conditions. To enable a food-effect assessment on exposure, subjects enrolled in Cohort 4 (500 mg or placebo) subsequently received a second dose of the compound of Example 1 following a high-fat breakfast.
# Part 2 of the study evaluated the safety, tolerability, PK, and PD of multiple ascending doses of the compound of Example 1. Twelve subjects were administered a 7-day course of the compound of Example 1 (n=10 subjects/cohort received the API and n=2 subjects/cohort received matching placebo) according to the following dose regimens: 100 mg of the compound of Example 1 or placebo every 8 hours (q8h) in Cohort 1; 200 mg of the compound of Example 1 or placebo q8h in Cohort 2; 400 mg of the compound of Example 1 or placebo q8h in Cohort 3 and 800 mg of the compound of Example 1 or placebo q8h in Cohort 4.
# [5] = Phase 1 Part 1, single ascending oral dose pharmacokinetics and food effect; assay type: in vivo, human; conditions: for Tmax: median
# Protocol: as §1
# A summary of the pharmacokinetic parameters for fasting, single oral doses of 50 to 1000 mg of the compound of Example 1 (Part 1) is presented in Table 16.
# Compound concentrations then declined biphasically and were quantifiable through 9 hours postdose in Cohort 1 (50 mg) and 24 hours postdose in Cohorts 4 and 5 (500 and 1000 mg).
# [6] = molecular target: T1, plasma kallikrein (Homo sapiens, UniProt P03952); experiment: Plasma kallikrein activity in subject samples, contact activation assay with fluorogenic substrate; assay type: in vivo
# T1 construct: normal levels of C1INH present in healthy subject plasma samples; from tissue; host or cells: plasma samples of healthy human subjects
# T1 sequence (P03952 391-638 limits assumed): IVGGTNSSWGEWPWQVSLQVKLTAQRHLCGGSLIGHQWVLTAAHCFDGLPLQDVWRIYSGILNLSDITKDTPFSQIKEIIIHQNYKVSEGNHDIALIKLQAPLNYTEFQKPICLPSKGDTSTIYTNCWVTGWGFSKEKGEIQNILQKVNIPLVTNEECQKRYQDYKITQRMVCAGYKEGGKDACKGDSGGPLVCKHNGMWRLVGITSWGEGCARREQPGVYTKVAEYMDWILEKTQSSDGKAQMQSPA
# T1 sequence (P03952 20-390 partner limits assumed): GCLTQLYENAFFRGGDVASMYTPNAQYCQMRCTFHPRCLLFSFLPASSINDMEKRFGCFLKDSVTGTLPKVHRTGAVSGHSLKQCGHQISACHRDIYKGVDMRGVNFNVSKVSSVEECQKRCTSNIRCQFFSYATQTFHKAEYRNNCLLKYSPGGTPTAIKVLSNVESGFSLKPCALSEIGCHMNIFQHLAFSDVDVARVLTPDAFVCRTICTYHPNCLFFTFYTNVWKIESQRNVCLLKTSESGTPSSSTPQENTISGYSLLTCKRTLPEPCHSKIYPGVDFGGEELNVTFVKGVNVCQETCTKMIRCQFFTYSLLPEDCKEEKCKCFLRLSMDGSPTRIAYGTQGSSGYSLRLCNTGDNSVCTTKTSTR
# Protocol: Plasma kallikrein activity was assessed in subject samples with an exploratory contact activation assay using a fluorogenic artificial substrate for kallikrein. In this assay, the contact pathway is activated by addition of ellagic acid, and amidolytic activity is measured. Results are expressed as percent inhibition compared to subject baseline samples and reflect inhibition additional to that resulting from the activity of normal levels of C1INH present in healthy subject plasma samples. Analysis of plasma kallikrein activity following single doses of the compound of Example 1 was performed through 12 hours postdose. […] The time course of inhibition generally followed the plasma pharmacokinetics of the compound. The greatest effect was seen around the time of Cmax. Plasma kallikrein inhibition largely returned to baseline at 12 hours postdose, when plasma concentrations of the compound of Example 1 were low (generally <10 ng/mL).
# Plasma kallikrein activity profiles were measured in Part 2 subjects on day 7 of dosing and the results were expressed as percent inhibition compared to the activity present in the Day 1 predose plasma sample. […] Kallikrein inhibition was observed through the last dosing interval on day 7 compared to placebo (p<0.0001).
# [7] = rat, intragastric 5 mg/Kg, aqueous dosing solution, individual rats 1-4
# [8] = 50 mg single oral dose, fasting, GM
# [9] = 125 mg single oral dose, fasting, GM
# [10] = 250 mg single oral dose, fasting, GM
# [11] = 500 mg single oral dose, FASTED, GM
# [12] = human, plasma, po, 50 mg, 50 mg single oral dose, fasting, GM
# [13] = human, plasma, po, 125 mg, 125 mg single oral dose, fasting, GM
# [14] = human, plasma, po, 250 mg, 250 mg single oral dose, fasting, GM
# [15] = human, plasma, po, 500 mg, 500 mg single oral dose, FASTED, GM
# [16] = human, plasma, po, 500 mg, 500 mg single oral dose, FED (high-fat breakfast), GM
# [17] = human, plasma, po, 1000 mg, 1000 mg single oral dose, fasting, GM
smiles,measurement,setting,value
"C=Cc1cc(C(=O)Nc2ccc(C(=N)N)cc2)c(-c2ccc(C(=O)NCC3CC3)nc2C(=O)O)cc1OC [Example 1, 3-[2-(4-carbamimidoyl-phenylcarbamoyl)-5-methoxy-4-vinyl-phenyl]-6-(cyclopropylmethyl-carbamoyl)-pyridine-2-carboxylic acid]",concentration at 0 min,"[1]; rat, in vivo, 5 mg/Kg, Plasma concentration, 0 min, intragastric 5 mg/Kg, aqueous dosing solution, individual rats 1-4",0 ng/mL
same,"Plasma concentration, 0 min",[1]; [7],0 ng/mL
same,"Plasma concentration, 30 min",[1]; [7],108 ng/mL and <10 ng/mL and 188 ng/mL and 23 ng/mL
same,"Plasma concentration, 1 hr",[1]; [7],88 ng/mL and <10 ng/mL and 130 ng/mL and 30 ng/mL
same,"Plasma concentration, 2 hr",[1]; [7],123 ng/mL and <10 ng/mL and 87 ng/mL and 27 ng/mL
same,"Plasma concentration, 4 hr",[1]; [7],134 ng/mL and <10 ng/mL and 99 ng/mL and 24 ng/mL
same,"Plasma concentration, 8 hr",[1]; [7],48 ng/ml and <10 ng/ml (2×) and 30 ng/ml
same,Gastrointestinal (GI) absorption,"[1]; rats, aqueous dosing solutions",very low or zero
same,logD at 24 h,[2],1.9
same,pKa,"[3]; aqueous (UV-metric), methanol cosolvents (potentiometric), no higher pKa observed by potentiometric method, read-out: higher pKa as reported",> 11
same,pKa,"[3]; aqueous (UV-metric), methanol cosolvents (potentiometric), no lower pKa observed by potentiometric method, read-out: lower pKa as reported",< 3
same,pKa,"[3]; aqueous, UV-metric method, aqueous, read-out: lower pKa",2.31 ± 0.15
same,safety and tolerability,"[4]; Part 1 (50-1000 mg single) and Part 2 (100-800 mg q8h, 7 days)",generally safe and well tolerated
same,dose-limiting adverse events,[4]; Part 1 and Part 2,no dose-limiting adverse events
same,serious adverse events,[4]; Part 1 and Part 2,no serious adverse events
same,DN AUC0-inf,[5]; [8],1.94 ng·h/mL/mg
same,DN Cmax,[5]; [8],0.528 ng/mL/mg
same,DN AUC0-inf,[5]; [9],1.58 ng·h/mL/mg
same,DN Cmax,[5]; [9],0.432 ng/mL/mg
same,DN AUC0-inf,[5]; [10],1.41 ng·h/mL/mg
same,DN Cmax,[5]; [10],0.344 ng/mL/mg
same,reduction of AUCinf with food v. fasting,[5]; 500 mg single oral dose,23%
same,reduction of AUClast with food v. fasting,[5]; 500 mg single oral dose,20%
same,reduction of geometric mean Cmax after a high-fat breakfast v. fasting,[5]; 500 mg single oral dose,47%
same,DN AUC0-inf,[5]; [11],1.60 ng·h/mL/mg
same,DN Cmax,[5]; [11],0.311 ng/mL/mg
same,DN Cmax,"[5]; 1000 mg single oral dose, fasting, GM",0.193 ng/mL/mg
same,DN AUC0-inf,"[5]; 1000 mg single oral dose, fasting, GM, n = 5",0.983 ng·h/mL/mg
same,half-life,"[5]; human, plasma, oral, 50 mg, Cohort 1 (50 mg single dose), read-out: terminal half-life (converted)",~3 h
same,half-life,"[5]; human, plasma, oral, 500 mg, Cohort 4 (500 mg single dose), read-out: terminal half-life (converted)",~15 h
same,concentration at 12 h,"[5]; human, plasma, oral, single doses, read-out: plasma concentrations at 12 hours postdose",< 10 ng/mL
same,AUC(0-inf),[5]; [12],96.8 ng·h/mL
same,AUC(0-t),[5]; [12],89.6 ng·h/mL
same,Cmax,[5]; [12],26.4 ng/mL
same,half-life,"[5]; human, plasma, po, 50 mg, 50 mg single oral dose, fasting, GM, read-out: t1/2 (converted)",2.98 h
same,Tmax,"[5]; human, plasma, po, 50 mg, 50 mg single oral dose, fasting",1 h
same,AUC(0-inf),[5]; [13],197 ng·h/mL
same,AUC(0-t),[5]; [13],188 ng·h/mL
same,Cmax,[5]; [13],54 ng/mL
same,half-life,"[5]; human, plasma, po, 125 mg, 125 mg single oral dose, fasting, GM, read-out: t1/2 (converted)",4.66 h
same,Tmax,"[5]; human, plasma, po, 125 mg, 125 mg single oral dose, fasting",2 h
same,AUC(0-inf),[5]; [14],353 ng·h/mL
same,AUC(0-t),[5]; [14],336 ng·h/mL
same,Cmax,[5]; [14],85.9 ng/mL
same,half-life,"[5]; human, plasma, po, 250 mg, 250 mg single oral dose, fasting, GM, read-out: t1/2 (converted)",6.5 h
same,Tmax,"[5]; human, plasma, po, 250 mg, 250 mg single oral dose, fasting",2 h
same,AUC(0-inf),[5]; [15],802 ng·h/mL
same,AUC(0-t),[5]; [15],760 ng·h/mL
same,Cmax,[5]; [15],155 ng/mL
same,half-life,"[5]; human, plasma, po, 500 mg, 500 mg single oral dose, FASTED, GM, read-out: t1/2 (converted)",15.4 h
same,Tmax,"[5]; human, plasma, po, 500 mg, 500 mg single oral dose, FASTED",2 h
same,AUC(0-t),[5]; [16],586 ng·h/mL
same,Cmax,[5]; [16],82.1 ng/mL
same,AUC(0-inf),"[5]; human, plasma, po, 500 mg, 500 mg single oral dose, FED (high-fat breakfast), GM, n = 5",642 ng·h/mL
same,half-life,"[5]; human, plasma, po, 500 mg, 500 mg single oral dose, FED (high-fat breakfast), GM, n = 5, sampling to 96 hours, read-out: t1/2 (converted)",18.9 h
same,Tmax,"[5]; human, plasma, po, 500 mg, 500 mg single oral dose, FED (high-fat breakfast)",2.5 h
same,AUC(0-t),[5]; [17],981 ng·h/mL
same,Cmax,[5]; [17],193 ng/mL
same,AUC(0-inf),"[5]; human, plasma, po, 1000 mg, 1000 mg single oral dose, fasting, GM, n = 5",983 ng·h/mL
same,half-life,"[5]; human, plasma, po, 1000 mg, 1000 mg single oral dose, fasting, GM, n = 5, sampling to 96 hours, read-out: t1/2 (converted)",12.3 h
same,Tmax,"[5]; human, plasma, po, 1000 mg, 1000 mg single oral dose, fasting",2 h
same,Kallikrein inhibition compared to Day 1 predose,"[6]; beginning and end of the dosing interval on Day 7, two highest dose cohorts (400, 800 mg q8h), FIG. 11",30-40%
same,change of plasma kallikrein activity in comparison to placebo,[6]; single doses of 50-250 mg,modest but real changes
